The values that follow come from paper PMC9325671, “Targeting LIPA independent of its lipase activity is a therapeutic strategy in solid tumors via induction of endoplasmic reticulum stress” (Nature Cancer, 2022).

The experiment concerns the target T1, lysosomal acid lipase (LAL, LIPA) (Homo sapiens, UniProt P38571).
T1 construct: endogenous LAL in SUM-159 cells (CETSA); WT-LIPA reconstituted in LIPA KO cells (pulldown)
T1 sequence (P38571 77-399): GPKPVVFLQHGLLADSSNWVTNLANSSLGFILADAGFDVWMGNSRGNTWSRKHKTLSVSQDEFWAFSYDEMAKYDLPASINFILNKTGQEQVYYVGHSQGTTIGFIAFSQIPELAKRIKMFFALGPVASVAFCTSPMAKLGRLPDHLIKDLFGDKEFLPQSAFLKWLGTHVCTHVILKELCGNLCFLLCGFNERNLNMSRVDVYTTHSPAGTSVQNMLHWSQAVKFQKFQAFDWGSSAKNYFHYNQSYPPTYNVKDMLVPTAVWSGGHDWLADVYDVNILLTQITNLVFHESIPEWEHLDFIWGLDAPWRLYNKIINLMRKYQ
Kind of experiment: cellular thermal shift assay ([…] ERX-41) in SUM-159 cells; pulldown from lysates with biotinylated ERX-41. The format is cell-based.

On to `CC(C)COc1cc(C(=O)Nc2ccc(C(=O)N[C@H]3CC[C@H](C)CC3)cc2OCC(C)C)ccc1NC(=O)c1ccc([N+](=O)[O-])c(OCCO)c1` [ERX-41], for which the “cellular thermal shift assay (10 uM ERX-41) in SUM-159 cells; pulldown from lysa” value is “ERX-41 was able to stabilize LAL within the cell and shifted thermal sensitivity, suggesting that ERX-41 binds to LAL”.
